Laboratory results from paper PMC5707507 (2015).

Columns and labels:
[1] = tested on: F21T (DNA, G4) GGGTTAGGGTTAGGGTTAGGG; test: FRET melting; conditions: 100 mM K+; potassium cacodylate, pH 7.0; 5 µM compound; 0.2 µM DNA
[2] = tested on: F10T (DNA, hairpin, hexaethylene glycol (HEG) linker between 8 and 9) TATAGCTATATAGCTATAT; test: FRET melting; conditions: 10 mM Li+; lithium cacodylate, pH 7.4; 5 µM compound; 0.2 µM DNA
[3] = tested on: ssDNA (DNA, single strand) CCAGTTCGTAGTAACCC; test: luminescence response; conditions: none stated in assay buffer; 10 mM Tris-HCl, pH 7.2; 1.5 µM complex; 5 µM DNA highest tested
[4] = tested on: c-myc (DNA, G4) TGAGGGTGGGTAGGGTGGGTAA; test: G4-FID, thiazole orange displacement; conditions: 100 mM KCl; 10 mM Tris-HCl, pH 7.2; 0.25 µM DNA; 0.50 µM thiazole orange displaced
[5] = tested on: ds26 (DNA, duplex) CAATCGGATCGAATTCGATCCGATTG; test: G4-FID, thiazole orange displacement; conditions: 100 mM KCl; 10 mM Tris-HCl, pH 7.2; 0.75 µM thiazole orange; <15% displaced at highest concentration 1.25 µM
[6] = tested on: c-myc (DNA, G4) TGAGGGTGGGTAGGGTGGGTAA; test: luminescence response; conditions: 20 mM KCl (annealing); 10 mM Tris-HCl, pH 7.2; 1.5 µM complex; 5 µM DNA; intensity ratio 7.5 over ds26, 5.5 over ssDNA

SMILES | ΔTm [1] | ΔTm [2] [°C] | binding [3] | G4DC50 [4] [µM] | DC50 [5] [nM] | binding [6]
Cc1ccc(-c2ccc(C)cn2)nc1.[Ir+3].[c-]1ccccc1-c1nc2ccccc2[nH]1.[c-]1ccccc1-c1nc2ccccc2[nH]1 | ~ 6.0 °C | 2 | no | 0.85 | > 1250 | –
Cc1ccc(-c2ccc(C)cn2)nc1.[Ir+3].[c-]1ccccc1-c1nc2ccccc2s1.[c-]1ccccc1-c1nc2ccccc2s1 | – | – | – | – | – | yes
